Measured values taken from ChEMBL document CHEMBL1121588, “Studies on anticoccidial agents. 13. Synthesis and anticoccidial activity of nitropyridine-2- and -3-sulfonamides and derivatives” (1980).

System: Eimeria tenella
Experiment: Anticoccidial activity against Eimeria tenella using amprolium resistant strain at a concentration of 0.007% drug in feed
Type: functional

Row | Compound | Activity
1 | NS(=O)(=O)c1cncc([N+](=O)[O-])c1 | 195
2 | NC(=O)c1cncc([N+](=O)[O-])c1 | 186

System: Eimeria tenella
Experiment: Anticoccidial activity against Eimeria tenella using amprolium resistant strain at a concentration of 0.015% drug in feed
Type: functional

Row | Compound | Activity
3 | CCCCN(CC)S(=O)(=O)c1cncc([N+](=O)[O-])c1 | 175
4 | CN(C)S(=O)(=O)c1cncc([N+](=O)[O-])c1 | 175
5 | CCOCCN(CC)S(=O)(=O)c1cncc([N+](=O)[O-])c1 | 178
6 | CNS(=O)(=O)c1cncc([N+](=O)[O-])c1 | 195
7 | O=[N+]([O-])c1cncc(S(=O)(=O)NCc2ccccc2)c1 | 168
8 | CC(C)(C)C(=O)NS(=O)(=O)c1cncc([N+](=O)[O-])c1 | 122
9 | CCCCCCCC(=O)NS(=O)(=O)c1cncc([N+](=O)[O-])c1 | 187
10 | NS(=O)(=O)c1ccc[n+]([O-])c1 | 160
11 | O=[N+]([O-])c1cncc(S(=O)(=O)Nc2ccccc2)c1 | 86
12 | NS(=O)(=O)c1ncccc1[N+](=O)[O-] | 55
13 | NS(=O)(=O)c1ccc([N+](=O)[O-])nc1 | 120
14 | NS(=O)(=O)c1cccnc1[N+](=O)[O-] | 144
15 | NS(=O)(=O)c1cnccc1[N+](=O)[O-] | 144
16 | CCOCCNS(=O)(=O)c1cncc([N+](=O)[O-])c1 | 192
17 | NS(=O)(=O)c1cncc([N+](=O)[O-])c1 | 194
18 | CCNS(=O)(=O)c1cncc([N+](=O)[O-])c1 | 190
19 | CCCCCCCCNS(=O)(=O)c1cncc([N+](=O)[O-])c1 | 126
20 | NC(=O)c1cncc([N+](=O)[O-])c1 | 198
21 | CC(=O)NS(=O)(=O)c1cncc([N+](=O)[O-])c1 | 186
22 | NS(=O)(=O)c1cc[n+]([O-])cc1 | 120
23 | NS(=O)(=O)c1cccc[n+]1[O-] | 183
24 | O=[N+]([O-])c1cncc(S(=O)(=O)NCCO)c1 | 120
25 | NS(=O)(=O)c1ccc([N+](=O)[O-])cn1 | 32
26 | NS(=O)(=O)c1cccc([N+](=O)[O-])n1 | 120
27 | NS(=O)(=O)c1cc([N+](=O)[O-])ccn1 | 107
28 | CC(C)OCCCNS(=O)(=O)c1cncc([N+](=O)[O-])c1 | 193
29 | CCCc1ncc(C[n+]2ccccc2C)c(N)n1.[Cl-] | 95

System: Eimeria tenella
Experiment: Anticoccidial activity against Eimeria tenella using amprolium resistant strain at a concentration of 0.0035% drug in feed
Type: functional

Row | Compound | Activity
30 | NS(=O)(=O)c1cncc([N+](=O)[O-])c1 | 194
31 | NC(=O)c1cncc([N+](=O)[O-])c1 | 158

System: Eimeria tenella
Experiment: Anticoccidial activity against Eimeria tenella using amprolium resistant strain at a concentration of 0.00175% drug in feed
Type: functional

Row | Compound | Activity
32 | NS(=O)(=O)c1cncc([N+](=O)[O-])c1 | 158
